The text below walks through data of US20140140929A1, “CHEMICALLY MODIFIED CELL-PENETRATING PEPTIDES FOR IMPROVED DELIVERY OF GENE MODULATING COMPOUNDS” (priority 2008, published 2014).

This assay deals with luciferase in BHK21 cells. The experiment in a line: siRNA treatment, luciferase down-regulation in luciferase-stable BHK21 cells. The format is cell-based. The method, then:
Phosphorothioate 2′O methyl RNA (SCO) or anti-miR21 2′OMe RNA (with 33% LNA substitution) was mixed with CPPs at different molar ratios (1:0-1:20) in MQ water in 1/10th of the final treatment volume (i.e 50 μl). Complexes were formed for 30 min in RT and meanwhile media was replaced in 24-well plates to fresh serum free DMEM (450 μl). Thereafter, complexes were added to each well. The final concentration of SCO was kept constant at 200 nM and peptide concentration was varied or complexes were formed at a given molar ratio using 400 nM SCO and then serial diluted in water. Complexes were prepared according to manufacturers protocol when using the commercial transfection reagent Lipofectamine 2000 (Promega, USA). […] Lower concentrations were generated by doing serial dilutions.
siRNA transfections: Different luciferase-stable cell lines including HeLa, BHK21, and U2OS cells were seeded as in the other experiments. Cells were treated for 4 h in serum-free or full growth media after which 1 ml of full growth media was added to the wells. Cells were lysed and measured for luminescence 20 h later as described previously. The luminescence was normalized to protein content in each well and the RLU/mg value from untreated cells were considered as 100%. Different treatments are then presented as % of untreated cells.

Setting [1] is: siRNA concentration, Bhk21, target Luciferase.

For the substance “Stearyl-AGYLLGK[KK2sa4qn4]INLKALAALAKKIL-NH2 [Pepfect 6]”, the down-regulation of luciferase result (50 nM siRNA, MR 10, 24 h treatment) is on record as “more than 80%”. In addition, where the note is “Bhk21, target Luciferase”, the “Compared to Lipofectamine” value is listed as “better”. Moreover, the “luciferase expression, dose-response in words” value (full growth media, 24 h after transfection) is reported as “dose-dependent decrease in luciferase expression”. Under setting [1], this substance returned a 70% inhibition of 2.5 to 5 nM and a 90% inhibition of 5 to 20 nM. Further, the “efficacy to convey siRNA targeting luciferase, PF6 versus PF5” value (two molar ratios, low siRNA concentration) is given as “superior to PF5”.
